Data as given in patent publication US11524966B1 (Valo Early Discovery, Inc., priority 2017, dated 2022).

target: T1, USP25 (USP25-His6, Boston Biochem E-546) (Homo sapiens, UniProt Q9UHP3); assay: Ubiquitin-Rhodamine 110 Assay for USP25 Activity, Example A-2; format: biochemical; details: Ubiquitin-Rhodamine 110 assay, Example A-2; read-out: USP25 A-2 IC50 range
T1 construct: His6; purchased Boston Biochem E-546
T1 sequence (Q9UHP3 1-1055): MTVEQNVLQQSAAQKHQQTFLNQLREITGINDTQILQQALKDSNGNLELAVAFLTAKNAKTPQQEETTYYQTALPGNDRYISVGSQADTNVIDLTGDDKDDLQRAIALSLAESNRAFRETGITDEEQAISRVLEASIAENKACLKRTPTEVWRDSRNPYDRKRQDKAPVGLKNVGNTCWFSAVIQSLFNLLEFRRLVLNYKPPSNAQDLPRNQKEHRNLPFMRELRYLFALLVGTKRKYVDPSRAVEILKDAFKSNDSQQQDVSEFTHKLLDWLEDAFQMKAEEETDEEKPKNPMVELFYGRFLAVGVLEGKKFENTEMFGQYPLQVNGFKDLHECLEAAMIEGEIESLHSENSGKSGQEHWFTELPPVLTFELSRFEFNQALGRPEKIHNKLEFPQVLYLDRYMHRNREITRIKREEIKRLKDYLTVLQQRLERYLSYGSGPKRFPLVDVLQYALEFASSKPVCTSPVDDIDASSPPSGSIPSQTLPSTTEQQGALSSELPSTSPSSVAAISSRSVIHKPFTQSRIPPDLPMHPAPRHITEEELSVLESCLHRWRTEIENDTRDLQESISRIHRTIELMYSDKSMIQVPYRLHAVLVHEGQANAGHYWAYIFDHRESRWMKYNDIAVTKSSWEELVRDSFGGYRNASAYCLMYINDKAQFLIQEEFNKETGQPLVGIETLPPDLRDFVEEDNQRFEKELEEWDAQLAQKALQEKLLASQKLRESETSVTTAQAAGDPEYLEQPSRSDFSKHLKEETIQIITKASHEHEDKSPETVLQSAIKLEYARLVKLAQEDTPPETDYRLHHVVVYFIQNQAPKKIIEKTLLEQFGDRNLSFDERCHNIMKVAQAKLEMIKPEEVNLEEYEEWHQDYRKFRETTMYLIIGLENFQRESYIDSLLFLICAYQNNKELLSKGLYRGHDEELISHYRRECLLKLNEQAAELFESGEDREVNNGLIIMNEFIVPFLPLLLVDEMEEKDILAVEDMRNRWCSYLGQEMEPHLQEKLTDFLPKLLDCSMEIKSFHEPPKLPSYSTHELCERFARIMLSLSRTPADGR
In short: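 75 pM USP25-His6 was preincubated 30 min with compound (10-point 3-fold series, 25 μM–1.3 nM) in pH 8.0 Tris buffer with BME, BGG and Triton X-100. Then 25 nM Ub-Rh110 (<<Km) was added for 45 min at room temperature, stopped with citric acid, fluorescence read at 485/535 nm, IC50 by 4-parameter fit.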

Compared with `Cc1ccc2c(N)c(C(=O)N[C@@H]3Cc4ccc(N5CCNCC5)nc4[C@@H](C)C3)sc2n1` (single isomer, unassigned) [Example 205], `Cc1ccc2c(N)c(C(=O)N[C@H]3COc4cc(N5CCO[C@H]6CNC[C@H]65)ccc4C3)sc2n1` [Example 184, N-[(3R)-7-[(4aR, 7aS)-octahydropyrrolo[3,4-b]morpholin-4-yl]-3,4-dihydro-2H-1-benzopyran-3-yl]-3-amino-6-methylthieno[2,3-b]pyridine-2-carboxamide] is lower in IC50: over 2000 nM for the first, 50 to 200 nM for the second.

`Cc1cc(C)c2c(N)c(C(=O)N[C@H]3COc4cc(N5CC[C@H]6CNC[C@H]65)cc(F)c4C3)sc2n1` (single isomer, unassigned) [Example 222] and `Cc1cc(C)c2c(N)c(C(=O)N[C@H]3COc4cc(N5CC[C@@H]6CNC[C@@H]65)cc(F)c4C3)sc2n1` (single isomer, unassigned) [Example 223] fall in the same range of IC50: 50 to 200 nM for the first, 50 to 200 nM for the second.

`CO[C@H]1CN(c2cc3c(cc2C#N)C[C@@H](NC(=O)c2sc4nc(C)ccc4c2N)CO3)C[C@@H]1N` [Example 177, 3-amino-N-[(3R)-7-[(3S,4S)-3-amino-4-methoxypyrrolidin-1-yl]-6-cyano-3-4-dihydro-2H-1-benzopyran-3-yl]-6-methylthieno[2,3-b]pyridine-2-carboxamide] and `CO[C@H]1CN(c2cc3c(c(F)c2C#N)C[C@@H](NC(=O)c2sc4nc(C)ccc4c2N)CO3)C[C@@H]1N` [Example 200] fall in the same range of IC50: 50 to 200 nM for the first, 50 to 200 nM for the second.

Compared with `CO[C@H]1CN(c2ccc3c(c2C#N)CC[C@H](NC(=O)c2sc4nc(C)ccc4c2N)C3)C[C@@H]1N` [Example 178, 3-amino-N-[(2S)-6-[(3S,4S)-3-amino-4-methoxypyrrolidin-1-yl]-5-cyano-1,2,3,4-tetrahydronaphthalen-2-yl]-6-methylthieno[2,3-b]pyridine-2-carboxamide], `CO[C@H]1CN(c2nc3c(cc2F)C[C@@H](NC(=O)c2sc4nc(C)ccc4c2N)CC3)C[C@@H]1N` [Example 183, 3-amino-N-[(6S)-2-[(3S,4S)-3-amino-4-methoxypyrrolidin-1-yl]-3-fluoro-5,6,7,8-tetrahydroquinolin-6-yl]-6-methylthieno[2,3-b]pyridine-2-carboxamide] is higher in IC50: 200 to 2000 nM for the first, over 2000 nM for the second. The first is the more potent here.

`CO[C@H]1CN(c2ccc3c(n2)OC[C@H](NC(=O)c2sc4nc(C)cnc4c2N)C3)C[C@@H]1N` [Example 181, 7-amino-N-[(3R)-7-[(3S,4S)-3-amino-4-methoxypyrrolidin-1-yl]-2H,3H,4H-pyrano[2,3-b]pyridin-3-yl]-3-methylthieno[2,3-b]pyrazine-6-carboxamide] and `CCO[C@H]1CN(c2ccc3c(n2)OC[C@H](NC(=O)c2sc4nc(C)cnc4c2N)C3)C[C@@H]1N` [Example 182, 7-amino-N-[(3R)-7-[(3S,4S)-3-amino-4-ethoxypyrrolidin-1-yl]-2H,3H,4H-pyrano[2,3-b]pyridin-3-yl]-3-methylthieno[2,3-b]pyrazine-6-carboxamide] cannot be ordered by IC50: over 2000 nM for the first, over 2000 nM for the second.

`Cc1ccc2c(N)c(C(=O)N[C@H]3COc4cc(N5CCO[C@@H]6CNC[C@@H]65)ccc4C3)sc2n1` [Example 185, N-[(3R)-7-[(4aS,7aR)-octahydropyrrolo[3,4-b]morpholin-4-yl]-3,4-dihydro-2H-1-benzopyran-3-yl]-3-amino-6-methylthieno[2,3-b]pyridine-2-carboxamide] and `CO[C@H]1CN(c2cc3c(c(F)c2C#N)C[C@@H](NC(=O)c2sc4nc(C)cnc4c2N)CO3)C[C@@H]1N` [Example 199, 7-amino-N-[(3R)-7-[(3S,4S)-3-amino-4-methoxypyrrolidin-1-yl]-6-cyano-5-fluoro-3,4-dihydro-2H-1-benzopyran-3-yl]-3-methylthieno[2,3-b]pyrazine-6-carboxamide] fall in the same range of IC50: 50 to 200 nM for the first, 50 to 200 nM for the second.

`CO[C@H]1CN(c2ccc3c(c2)CC[C@H](NC(=O)c2cnc4c(c2)C2CC2CN4)C3)C[C@@H]1N` (stereo partly drawn) [Example 188, N-[(2S)-6-[(3S,4S)-3-amino-4-methoxypyrrolidin-1-yl]-1,2,3,4-tetrahydronaphthalen-2-yl]-5H,6H,6aH,7H,7aH-cyclopropa[c]1,8-naphthyridine-2-carboxamide] and `CO[C@H]1CN(c2ccc3c(c2)CC[C@H](NC(=O)c2cnc4c(c2)[C@@H]2C[C@@H]2CN4)C3)C[C@@H]1N` [Example 189, (6aS,7aR)-N-[(2S)-6-[(3S,4S)-3-amino-4-methoxypyrrolidin-1-yl]-1,2,3,4-tetrahydronaphthalen-2-yl]-5H,6H,6aH,7H,7aH-cyclopropa[c]1,8-naphthyridine-2-carboxamide] cannot be ordered by IC50: over 2000 nM for the first, over 2000 nM for the second.

`CO[C@H]1CN(c2ccc3c(c2)CC[C@H](NC(=O)c2cnc4c(c2)[C@H]2C[C@H]2CN4)C3)C[C@@H]1N` [Example 190, (6aR,7aS)-N-[(2S)-6-[(3S,4S)-3-amino-4-methoxypyrrolidin-1-yl]-1,2,3,4-tetrahydronaphthalen-2-yl]-5H,6H,6aH,7H,7aH-cyclopropa[c]1,8-naphthyridine-2-carboxamide] and `O=C(N[C@H]1CCc2cc(N3CC4CCC(C3)N4)cc(F)c2C1)c1cnc2c(c1)[C@@H]1C[C@@H]1CN2` [Example 191, (6aS,7aR)-N-[(2S)-6-{3,8-diazabicyclo[3.2.1]octan-3-yl}-8-fluoro-1,2,3,4-tetrahydronaphthalen-2-yl]-5H,6H,6aH,7H,7aH-cyclopropa[c]1,8-naphthyridine-2-carboxamide] cannot be ordered by IC50: over 2000 nM for the first, over 2000 nM for the second.

Compared with `O=C(N[C@H]1CCc2cc(N3CC4CCC(C3)N4)cc(F)c2C1)c1cnc2c(c1)[C@H]1C[C@H]1CN2` [Example 192, (6aR,7aS)-N-[(2S)-6-{3,8-diazabicyclo[3.2.1]octan-3-yl}-8-fluoro-1,2,3,4-tetrahydronaphthalen-2-yl]-5H,6H,6aH,7H,7aH-cyclopropa[c]1,8-naphthyridine-2-carboxamide], `O=C(N[C@@H]1CCc2cc(N3CC4CCC(C3)N4)cc(F)c2C1)c1cnc2c(c1)[C@@H]1C[C@@H]1CN2` [Example 193, (6aS,7aR)-N-[(2R)-6-{3,8-diazabicyclo[3.2.1]octan-3-yl}-8-fluoro-1,2,3,4-tetrahydronaphthalen-2-yl]-5H,6H,6aH,7H,7aH-cyclopropa[c]1,8-naphthyridine-2-carboxamide] is higher in IC50: 50 to 200 nM for the first, over 2000 nM for the second.

First: O=C(N[C@@H]1CCc2cc(N3CC4CCC(C3)N4)cc(F)c2C1)c1cnc2c(c1)[C@H]1C[C@H]1CN2 [Example 194, (6aR,7aS)-N-[(2R)-6-{3,8-diazabicyclo[3.2.1]octan-3-yl}-8-fluoro-1,2,3,4-tetrahydronaphthalen-2-yl]-5H,6H,6aH,7H,7aH-cyclopropa[c]1,8-naphthyridine-2-carboxamide]
Second: N#Cc1c(N2CC3CCC(C2)N3)cc(F)c2c1CC[C@H](NC(=O)c1cnc3c(c1)[C@@H]1C[C@@H]1CN3)C2 [Example 195, (6aS,7aR)-N-[(2S)-5-cyano-6-{3,8-diazabicyclo[3.2.1]octan-3-yl}-8-fluoro-1,2,3,4-tetrahydronaphthalen-2-yl]-5H,6H,6aH,7H,7aH-cyclopropa[c]1,8-naphthyridine-2-carboxamide]
The IC50 of the first is higher: 200 to 2000 nM for the first, 50 to 200 nM for the second.

`N#Cc1c(N2CC3CCC(C2)N3)cc(F)c2c1CC[C@H](NC(=O)c1cnc3c(c1)[C@H]1C[C@H]1CN3)C2` [Example 196, (6aR,7aS)-N-[(2S)-5-cyano-6-{3,8-diazabicyclo[3.2.1]octan-3-yl}-8-fluoro-1,2,3,4-tetrahydronaphthalen-2-yl]-5H,6H,6aH,7H,7aH-cyclopropa[c]1,8-naphthyridine-2-carboxamide] and `N#Cc1c(N2CC3CCC(C2)N3)cc(F)c2c1CC[C@@H](NC(=O)c1cnc3c(c1)[C@@H]1C[C@@H]1CN3)C2` [Example 197, (6aS,7aR)-N-[(2R)-5-cyano-6-{3,8-diazabicyclo[3.2.1]octan-3-yl}-8-fluoro-1,2,3,4-tetrahydronaphthalen-2-yl]-5H,6H,6aH,7H,7aH-cyclopropa[c]1,8-naphthyridine-2-carboxamide] cannot be ordered by IC50: over 2000 nM for the first, over 2000 nM for the second.

`N#Cc1c(N2CC3CCC(C2)N3)cc(F)c2c1CC[C@@H](NC(=O)c1cnc3c(c1)[C@H]1C[C@H]1CN3)C2` [Example 198, (6aR,7aS)-N-[(2R)-5-cyano-6-{3,8-diazabicyclo[3.2.1]octan-3-yl}-8-fluoro-1,2,3,4-tetrahydronaphthalen-2-yl]-5H,6H,6aH,7H,7aH-cyclopropa[c]1,8-naphthyridine-2-carboxamide] was tested, and the IC50 was 200 to 2000 nM.
